Key:
CYP2C9 = molecular target: T1, CYP2C9 (Homo sapiens, UniProt P11712); experiment: Inhibition of human liver microsomal CYP2C9 activity; type: in vitro ADME; details: human liver microsomes, probe substrate diclofenac, NADPH
T1 construct: from tissue; host or cells: human liver microsomes
Procedure: (§1) A total of five specific probe substrates for the five isozymes of CYP, phenacetin (CYP1A2), diclofenac (CYP2C9), (S′)-mephenytoin (CYP2C19), dextromethorphan ([…]), and midazolam (CYP3A4), were incubated respectively with human liver microsomes and the test compounds, and the reaction was initiated by the addition of reduced nicotinamide adenine dinucleotide phosphate (NADPH), and the samples were treated and the concentrations of the five metabolites produced by the specific substrates, acetaminophen, 4′-hydroxydiclofenac, 4′-hydroxymephenytoin, dextrorphan and 1′-hydroxymidazolam were measured by liquid chromatography tandem mass spectrometry (LC-MS/MS) after the end of the reaction, and the corresponding half maximal inhibitory concentrations (IC50) were calculated.

CCR5 = molecular target: T2, CCR5 (Homo sapiens, UniProt P51681); experiment: CCR5 FLIPR Calcium assay (intracellular calcium signaling); type: cell-based; details: HEK293 host cells, clone C13; agonist RANTES; Fluo-4 calcium signal
T2 construct: expressed in transfected cells; host or cells: HEK293, clone C13, passage P4
T2 sequence (P51681 whole entry, species assumed): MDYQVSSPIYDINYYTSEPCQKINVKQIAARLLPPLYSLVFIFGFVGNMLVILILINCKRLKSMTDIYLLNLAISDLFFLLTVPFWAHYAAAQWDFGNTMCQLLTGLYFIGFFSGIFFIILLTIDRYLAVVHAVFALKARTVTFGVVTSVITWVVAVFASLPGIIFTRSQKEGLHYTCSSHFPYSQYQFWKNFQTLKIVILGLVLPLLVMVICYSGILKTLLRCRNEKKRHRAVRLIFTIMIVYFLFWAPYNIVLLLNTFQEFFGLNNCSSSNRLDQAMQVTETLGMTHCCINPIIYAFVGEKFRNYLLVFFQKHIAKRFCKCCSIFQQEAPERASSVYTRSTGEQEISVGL
Procedure: (§2) The inhibitory effects of the compounds on CCR2 and CCR5 receptors were evaluated by detecting intracellular calcium signaling changes by FLIPR Calcium assay, using the IC50 values of the compounds as indicators.
(§3) 1. Cell lines: The cells were seeded and incubated overnight at 37° C. in a 5% CO2 incubator CCR2/CCR5 density: 1 M (20 k/well)
(§4) 2. Reagent: Fluo-4 Direct, (Invitrogen, Cat #F10471)
(§5) The compound was prepared by dissolving in DMSO to a 10 mM solution, and the compound solution was placed in a nitrogen chamber.
(§6) Preparation of probenecid in FLIPR assay buffer: 1 mL of FLIPR assay buffer was added to 77 mg of probenecid to make a 250 mM solution. The solution was prepared every day to keep fresh.
(§7) 2× (8 μM) Fluo-4 Direct™ loading buffer (10 mL of each)
(§8) 0.2 mL of probenecid was added to each 10 mL of Fluo-Direct. The final measured concentration was 2.5 mM MCP-1 was diluted in FLIPR assay buffer 1:2 for 10 spots, starting at 0.5 μM (eventually to […]). RANTES was diluted in FLIPR assay buffer 1:3 for 10 spots, starting at 0.5 μM (eventually to […]). 20 μL of serially diluted compound buffer was added to each well of the DRC plate.
(§9) The standard compound was diluted in DMSO 1:3 for 11 points, starting at 1 mM.
(§10) The test compound was diluted in DMSO 1:3 for 11 spots, starting at 2 mM. 250 nL of compound solution was transferred to cell plates using Echo (Greiner #781946) c) The cell plate was taken from the incubator and 20 μL of 2× Fluo-4 Direct no wash loading buffer was gently dispensed into a 384-well cell culture plate using a pipette. The volume in the final cell plate was 40 μL […]
(§11) d) Incubation was conducted at 37° C. 5% CO2 for 50 minutes, at room temperature for 10 minutes e) The cell plate was taken from the incubator and placed in the FLIPR. The composite plate and pipette tip box were placed in the FLIPR
(§12) 5) The “Max-Min” was calculated from Read 90 to the maximum allowed. EC80 values for each cell line were calculated using FLIPR
(§13) 6) Agonist reference compound at 5 times EC80 concentration was prepared 2) 10 μL of agonist reference compound at 5 times EC80 concentration was transferred from the composite plate to the cell plate.
(§14) 3) Fluorescence signals were read.
(§15) 4) The “Max-Min” was calculated from Read 90 to the maximum allowed h) Data was analyzed by using Prism, the IC50 values of the compounds were calculated.

CYP2C19 = molecular target: T3, CYP2C19 (Homo sapiens, UniProt P33261); experiment: Inhibition of human liver microsomal CYP2C19 activity; type: in vitro ADME; details: human liver microsomes, probe substrate (S)-mephenytoin, NADPH
T3 construct: from tissue; host or cells: human liver microsomes
T3 sequence (P33261 whole entry): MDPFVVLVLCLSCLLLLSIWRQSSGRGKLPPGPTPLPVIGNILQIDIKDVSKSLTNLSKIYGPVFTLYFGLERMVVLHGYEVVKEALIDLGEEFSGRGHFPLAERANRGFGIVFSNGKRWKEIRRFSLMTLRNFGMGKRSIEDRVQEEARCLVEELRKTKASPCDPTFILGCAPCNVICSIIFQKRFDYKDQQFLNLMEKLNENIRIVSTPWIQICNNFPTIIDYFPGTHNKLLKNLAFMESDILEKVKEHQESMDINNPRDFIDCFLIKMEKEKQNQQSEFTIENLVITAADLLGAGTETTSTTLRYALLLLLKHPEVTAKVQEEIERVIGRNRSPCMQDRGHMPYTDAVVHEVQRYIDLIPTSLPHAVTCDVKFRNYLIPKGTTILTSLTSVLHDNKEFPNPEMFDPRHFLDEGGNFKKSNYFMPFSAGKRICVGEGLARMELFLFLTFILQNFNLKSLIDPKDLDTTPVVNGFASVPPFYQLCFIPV
Procedure: as §1

CYP1A2 = molecular target: T4, CYP1A2 (Homo sapiens, UniProt P05177); experiment: Inhibition of human liver microsomal CYP1A2 activity; type: in vitro ADME; details: human liver microsomes, probe substrate phenacetin, NADPH
T4 construct: from tissue; host or cells: human liver microsomes
T4 sequence (P05177 1-516): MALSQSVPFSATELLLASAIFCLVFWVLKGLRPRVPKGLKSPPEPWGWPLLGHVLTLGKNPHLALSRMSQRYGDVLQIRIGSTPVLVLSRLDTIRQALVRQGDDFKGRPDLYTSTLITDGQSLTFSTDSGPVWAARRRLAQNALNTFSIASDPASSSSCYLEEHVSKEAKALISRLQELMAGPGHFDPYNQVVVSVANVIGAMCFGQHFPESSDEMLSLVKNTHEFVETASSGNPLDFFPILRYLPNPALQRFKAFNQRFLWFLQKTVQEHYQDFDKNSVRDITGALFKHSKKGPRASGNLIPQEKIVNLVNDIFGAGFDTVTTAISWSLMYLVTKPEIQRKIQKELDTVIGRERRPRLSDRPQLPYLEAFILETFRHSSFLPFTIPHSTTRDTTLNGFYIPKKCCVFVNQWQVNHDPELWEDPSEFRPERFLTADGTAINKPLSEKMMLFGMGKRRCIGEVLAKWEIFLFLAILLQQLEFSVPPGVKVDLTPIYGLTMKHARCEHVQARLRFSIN
Procedure: as §1

[1] = system: human liver microsomal cytochrome P450 isozymes (CYP1A2, CYP2B6, CYP2C8, CYP2C9, CYP2C19, CYP2D6 and CYP3A4); experiment: Inhibition of human liver microsomal cytochrome P450 isozymes, overall conclusion; type: in vitro ADME; details: human liver microsomes
Procedure: as §1

CYP3A4 = molecular target: T5, CYP3A4 (Homo sapiens, UniProt P08684); experiment: Inhibition of human liver microsomal CYP3A4 activity; type: in vitro ADME; details: human liver microsomes, probe substrate midazolam, NADPH
T5 construct: from tissue; host or cells: human liver microsomes
T5 sequence (P08684 whole entry): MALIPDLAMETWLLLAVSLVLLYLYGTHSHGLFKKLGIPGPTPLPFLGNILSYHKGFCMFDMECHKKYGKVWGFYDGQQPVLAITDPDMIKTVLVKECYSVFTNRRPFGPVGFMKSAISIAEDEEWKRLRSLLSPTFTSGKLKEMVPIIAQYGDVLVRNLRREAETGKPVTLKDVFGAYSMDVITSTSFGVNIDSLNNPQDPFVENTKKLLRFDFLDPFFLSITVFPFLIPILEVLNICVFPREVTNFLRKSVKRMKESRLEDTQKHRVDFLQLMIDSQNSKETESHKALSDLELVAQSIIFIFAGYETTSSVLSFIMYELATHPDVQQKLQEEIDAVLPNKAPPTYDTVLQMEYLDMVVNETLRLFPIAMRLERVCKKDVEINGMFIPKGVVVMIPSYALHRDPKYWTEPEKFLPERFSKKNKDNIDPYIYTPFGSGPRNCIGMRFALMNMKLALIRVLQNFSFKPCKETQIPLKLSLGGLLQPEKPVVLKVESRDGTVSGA
Procedure: as §1

CCR2 = molecular target: T6, CCR2 (Homo sapiens, UniProt P41597); experiment: CCR2 FLIPR Calcium assay (intracellular calcium signaling); type: cell-based; details: HEK293 host cells, clone C7; agonist MCP-1; Fluo-4 calcium signal
T6 construct: expressed in transfected cells; host or cells: HEK293, clone C7, passage P6
T6 sequence (P41597 whole entry, species assumed): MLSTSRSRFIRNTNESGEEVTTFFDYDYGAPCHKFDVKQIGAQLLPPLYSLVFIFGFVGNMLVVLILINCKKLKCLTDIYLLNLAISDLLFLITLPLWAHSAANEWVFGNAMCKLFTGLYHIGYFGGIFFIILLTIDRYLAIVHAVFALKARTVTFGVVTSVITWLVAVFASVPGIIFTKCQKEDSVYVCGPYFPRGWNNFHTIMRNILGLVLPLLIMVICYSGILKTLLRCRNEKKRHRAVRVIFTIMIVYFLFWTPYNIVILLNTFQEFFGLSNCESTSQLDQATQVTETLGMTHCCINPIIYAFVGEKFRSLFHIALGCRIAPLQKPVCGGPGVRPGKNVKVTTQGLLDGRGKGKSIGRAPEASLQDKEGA
Procedure: as §2, §3, §4, §5, §6, §7, §8, §9, §10, §11, §12, §13, §14, §15

CYP2D6 = molecular target: T7, CYP2D6 (Homo sapiens, UniProt P10635); experiment: Inhibition of human liver microsomal CYP2D6 activity; type: in vitro ADME; details: human liver microsomes, probe substrate dextromethorphan, NADPH
T7 construct: from tissue; host or cells: human liver microsomes
T7 sequence (P10635 whole entry): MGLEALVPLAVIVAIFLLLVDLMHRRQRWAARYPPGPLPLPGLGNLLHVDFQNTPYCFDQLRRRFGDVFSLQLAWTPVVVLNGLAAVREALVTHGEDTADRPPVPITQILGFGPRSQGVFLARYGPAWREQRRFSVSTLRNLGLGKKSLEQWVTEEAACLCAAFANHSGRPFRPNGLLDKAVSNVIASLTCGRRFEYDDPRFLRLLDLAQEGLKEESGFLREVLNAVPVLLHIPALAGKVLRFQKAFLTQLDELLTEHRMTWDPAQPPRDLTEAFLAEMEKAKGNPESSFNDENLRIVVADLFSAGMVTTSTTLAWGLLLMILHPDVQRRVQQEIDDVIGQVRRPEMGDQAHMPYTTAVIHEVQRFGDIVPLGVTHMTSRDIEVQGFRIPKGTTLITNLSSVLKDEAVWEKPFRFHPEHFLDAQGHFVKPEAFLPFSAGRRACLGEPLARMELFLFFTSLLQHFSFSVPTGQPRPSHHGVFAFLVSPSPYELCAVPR
Procedure: as §1

[2] = Comparative pharmacokinetic test in mice; type: in vivo, C57BL/6 male mice
Procedure: C57BL/6 male mice were used as test animals in the present study, and the plasma drug concentrations of the test compound WX009 and the reference compound in mice by intravenous administration or oral administration were quantified by LC/MS/MS method at different time points respectively to evaluate the pharmacokinetic characteristics of the two test drugs in mice.
A clarified solution of the test compound was injected via tail vein into C57BL/6 mice (overnight fasting, 7-10 weeks old), and the test compound was given by gavage into C57BL/6 mice (overnight fasting, 7-10 weeks old). Approximately 30 μL of blood was collected from the jugular or tail vein at 0.0833, 0.25, 0.5, 1, 2, 4, 6, 8, and 24 hours after administration, and placed in anticoagulation tubes added with EDTA-K2, then centrifuged at 4° C. for 15 minutes at 3000 g to give the plasma. Plasma drug concentration was determined by LC-MS/MS, and relevant pharmacokinetic parameters were calculated using WinNonlin™ Version 6.3 (Pharsight, Mountain View, CA) pharmacokinetic software with a non-compartmental model linear logarithmic trapezoidal method.

T1 sequence (P11712 whole entry): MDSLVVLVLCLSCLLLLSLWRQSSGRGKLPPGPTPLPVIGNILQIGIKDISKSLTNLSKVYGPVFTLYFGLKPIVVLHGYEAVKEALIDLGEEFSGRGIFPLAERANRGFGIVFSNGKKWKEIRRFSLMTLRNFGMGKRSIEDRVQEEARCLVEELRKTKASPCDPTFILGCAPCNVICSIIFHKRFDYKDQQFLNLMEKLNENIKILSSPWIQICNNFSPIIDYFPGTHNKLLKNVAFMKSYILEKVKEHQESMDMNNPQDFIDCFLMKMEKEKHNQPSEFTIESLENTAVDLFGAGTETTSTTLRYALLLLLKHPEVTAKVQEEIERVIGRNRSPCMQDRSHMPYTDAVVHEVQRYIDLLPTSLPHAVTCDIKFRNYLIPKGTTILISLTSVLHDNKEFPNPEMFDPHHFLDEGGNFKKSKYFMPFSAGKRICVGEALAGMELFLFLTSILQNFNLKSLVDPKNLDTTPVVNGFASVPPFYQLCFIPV

Structure (SMILES) | IC50 (CYP2C9) [µM] | IC50 (CCR5) [µM] | IC50 (CYP2C19) [µM] | IC50 (CYP1A2) [µM] | Risk of inhibition of human liver microsomal cytochrome P450 isozymes (in words) [1] | IC50 (CYP3A4) [µM] | IC50 (CCR2) [µM] | IC50 (CYP2D6) [µM] | half-life ([2]; male, C57BL/6, mouse, plasma, mice, intravenous injection 2 mg/kg) [h] | clearance ([2]; male, C57BL/6, mouse, plasma, mice, intravenous injection 2 mg/kg, read-out: Plasma clearance rate) [mL/min/kg] | bioavailability ([2]; male, C57BL/6, mouse, plasma, mice, oral 10 mg/kg) [%] | Plasma clearance rate compared with the reference compound (in words) ([2]; mice, intravenous) | Oral plasma systemic exposure (AUC0-inf) relative to the reference compound ([2]; mice, oral) | Area under the time-concentration curve (0-inf) ([2]; mice, oral 10 mg/kg) [µM·h] | Peak concentration ([2]; mice, oral 10 mg/kg) [µM] | Peak time ([2]; mice, oral 10 mg/kg) [h] | Pharmacokinetics compared with the reference compound (in words) ([2]; rodent mice)
CCCCOCCOc1ccc(-c2ccc3c(c2)C=C(C(=O)Nc2ccc([S+]([O-])Cc4c(CC)ccnc4C)cc2)CCCN3CC2CCOCC2)cc1 (single isomer, unassigned) [WX007] | > 50 | 0.00574 | > 50 | > 50 | no risk of inhibition | > 50 | 0.00196 | > 50 | – | – | – | – | – | – | – | – | –
CCCCOCCOc1ccc(-c2ccc3c(c2)C=C(C(=O)Nc2ccc([S+]([O-])Cc4c(CC)ccnc4C)cc2)CCCN3CC2CCCO2)cc1 (single isomer, unassigned) [WX009] | > 50 | 0.00464 | > 50 | > 50 | no risk of inhibition | 4.6 | 0.00184 | > 50 | 4.4 | 0.46 | 8 | slower | approximately six times higher | 37.356 | 5.076 | 2.0 | significantly better
CCCCOCCOc1ccc(-c2ccc3c(c2)C=C(C(=O)Nc2ccc([S+]([O-])Cc4cnc(C)cc4CC)cc2)CCCN3CC2CCOCC2)cc1 (single isomer, unassigned) [WX012] | 22.6 | 0.0084 | 10.1 | > 50 | no risk of inhibition | > 50 | 0.0015 | > 50 | – | – | – | – | – | – | – | – | –

— patent publication US12466817B2, “Pyridine derivative and application thereof” (Nicoya Therapeutics (Shanghai) Co., Ltd, priority 2020, dated 2025)
